The target of experiment [1] is T1, hSERT (Homo sapiens, UniProt P31645). Kind of experiment: hSERT neurotransmitter uptake assay (3H-5-HT), Assay 2. Format: cell-based. On the set-up: expressed in transfected cells; host or cells: HEK-293. The settings on record: serotonin reuptake inhibition, 3H-5-HT uptake, HEK-293 hSERT cells (values without asterisk); read-out: SERT pIC50 (converted).
The target in experiment [2] is T2, hNET (Homo sapiens, UniProt P23975). Kind of experiment: hNET neurotransmitter uptake assay (3H-NE), Assay 2. On the set-up: expressed in transfected cells; host or cells: HEK-293. It counts as cell-based. The settings on record: norepinephrine reuptake inhibition, 3H-NE uptake, HEK-293 hNET cells (values without asterisk); read-out: NET pIC50 (converted).
In experiment [3] the target is T2, hNET. Briefly: hNET membrane radioligand binding assay (3H-nisoxetine), Assay 1.
For experiment [4], the target named is T1, hSERT. Kind of experiment: hSERT membrane radioligand binding assay (3H-citalopram), Assay 1. Conditions: SERT pKi, hSERT HEK-293 membranes, 1.0 nM 3H-citalopram; values given as lower bounds.
Description: Membrane radioligand binding assays were used to measure inhibition of labeled ligand (^3H-citalopram or ^3H-nisoxetine or ^3H-WIN35428) binding to membranes prepared from cells expressing the respective human recombinant transporter (hSERT or hNET or hDAT) in order to determine the pKi values of test compounds at the transporters.
Recombinant human embryonic kidney (HEK-293) derived cell lines stably transfected with hSERT or hNET, respectively, were grown in DMEM medium supplemented with 10% dialyzed FBS (for hSERT) or FBS (for hNET), 100 μg/mL penicillin, 100 μg/mL streptomycin, 2 mM L-glutamine and 250 μg/mL of the aminoglycoside antibiotic G418, in a 5% CO2 humidified incubator at 37° C. When cultures reached 80% confluence, the cells were washed thoroughly in PBS (without Ca^2+ and Mg^2+) and lifted with 5 mM EDTA in PBS. Cells were pelleted by centrifugation, resuspended in lysis buffer (10 mM Tris-HCl, pH7.5 containing 1 mM EDTA), homogenized, pelleted by centrifugation, then resuspended in 50 mM Tris-HCl, pH 7.5 and 10% sucrose at 4° C. Protein concentration of the membrane suspension was determined using a Bio-Rad Bradford Protein Assay kit. Membranes were snap frozen and stored at −80° C.
Binding assays were performed in a 96-well assay plate in a total volume of 200 μl assay buffer (50 mM Tris-HCl, 120 mM NaCl, 5 mM KCl, pH 7.4) with 0.5, 1, and 3 μg membrane protein, for SERT, NET and DAT, respectively.
Stock solutions (10 mM in DMSO) of test compound were prepared and serial dilutions made using Dilution Buffer (50 mM Tris-HCl, 120 mM NaCl, 5 mM KCl, pH 7.4, 0.1% BSA, 400 μM ascorbic acid).
Following a 60 minute incubation at 22° C. (or a period sufficient to reach equilibrium), the membranes were harvested by rapid filtration over a 96-well UniFilter GF/B plate, pretreated with 0.3% polyethyleneimine, and washed 6 times with 300 μl wash buffer (50 mM Tris-HCl, 0.9% NaCl, pH 7.5 at 4° C.). Plates were dried overnight at room temperature, approximately 45 μl of MicroScint™-20 (Perkin Elmer) added and bound radioactivity quantitated via liquid scintillation spectroscopy. Inhibition curves and saturation isotherms were analyzed using GraphPad Prism Software package (GraphPad Software, Inc., San Diego, Calif.). IC50 values were generated from concentration response curves using the Sigmoidal Dose Response (variable slope) algorithm in Prism GraphPad.

pKi: −log10 of the molar value.

T1 sequence (P31645 whole entry): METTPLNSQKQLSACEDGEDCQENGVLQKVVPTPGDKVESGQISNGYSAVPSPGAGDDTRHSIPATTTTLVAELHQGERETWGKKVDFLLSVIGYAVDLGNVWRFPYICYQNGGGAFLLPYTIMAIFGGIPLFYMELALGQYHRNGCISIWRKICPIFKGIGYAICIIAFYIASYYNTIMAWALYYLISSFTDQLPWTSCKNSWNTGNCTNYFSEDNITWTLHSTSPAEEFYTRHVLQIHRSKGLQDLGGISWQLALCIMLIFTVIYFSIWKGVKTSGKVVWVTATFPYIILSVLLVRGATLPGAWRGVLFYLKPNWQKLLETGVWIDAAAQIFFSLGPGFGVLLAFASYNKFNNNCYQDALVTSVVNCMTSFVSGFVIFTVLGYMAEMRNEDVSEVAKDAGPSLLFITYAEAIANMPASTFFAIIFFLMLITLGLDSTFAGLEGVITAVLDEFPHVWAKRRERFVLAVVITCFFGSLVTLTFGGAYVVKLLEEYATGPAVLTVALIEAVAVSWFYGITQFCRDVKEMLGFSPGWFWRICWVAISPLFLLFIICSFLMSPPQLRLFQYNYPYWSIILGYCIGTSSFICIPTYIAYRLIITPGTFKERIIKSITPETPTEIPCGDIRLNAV
T2 sequence (P23975 whole entry): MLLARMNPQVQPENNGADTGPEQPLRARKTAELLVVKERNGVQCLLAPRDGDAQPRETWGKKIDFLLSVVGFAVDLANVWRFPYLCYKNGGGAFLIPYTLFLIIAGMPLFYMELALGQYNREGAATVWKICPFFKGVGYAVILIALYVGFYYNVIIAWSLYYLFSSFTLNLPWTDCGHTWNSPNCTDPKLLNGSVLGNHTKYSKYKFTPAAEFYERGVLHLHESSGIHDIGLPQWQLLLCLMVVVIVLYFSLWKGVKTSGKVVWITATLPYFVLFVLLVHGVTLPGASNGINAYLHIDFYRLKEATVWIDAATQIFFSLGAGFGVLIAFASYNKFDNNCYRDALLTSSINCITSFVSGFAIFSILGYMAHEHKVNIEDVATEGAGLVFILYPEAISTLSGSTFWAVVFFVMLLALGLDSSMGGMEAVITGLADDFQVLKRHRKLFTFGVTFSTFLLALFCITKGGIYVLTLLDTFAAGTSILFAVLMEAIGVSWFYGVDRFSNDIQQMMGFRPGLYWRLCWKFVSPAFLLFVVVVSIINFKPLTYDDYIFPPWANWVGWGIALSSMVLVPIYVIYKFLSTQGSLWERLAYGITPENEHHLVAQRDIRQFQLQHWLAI

The pKi is −log10 of the Ki, conventionally taken in molar units. A low value points to a high Ki. Turning to `Cc1ccc(O[C@H](C2CC2)[C@H]2CCNC2)c(F)c1F` [Example 16-51, (S)-3-[(R)cyclopropyl-(2,3-difluoro-4-methylphenoxy)methyl]pyrrolidine], the IC50 at hSERT [1] and on hNET [2] was not above 10 nM throughout. In addition, the pKi at hNET [3] and at hSERT [4] was not below 8.00 each time.
With `CC(C)[C@@H](Oc1cccc(Cl)c1Cl)[C@@H]1CCNC1` [Example 6-15, (R)-3-[(R)-1-(2,3-Dichlorophenoxy)-2-methylpropyl]pyrrolidine], the IC50 at hSERT [1] and at hNET [2] was not above 10 nM throughout. In addition, the negative logarithm of the Ki (pKi) on hNET [3] and at hSERT [4] was not below 8.00 in each case.
With `CC(C)C[C@@H](Oc1cccc(Cl)c1Cl)[C@H]1CCNC1` [Example 10-23, (S)-3-[(R)-1-(2,3-Dichlorophenoxy)-3-methylbutyl]pyrrolidine], the IC50 at hSERT [1] and at hNET [2] was not above 10 nM in each case. For the same compound, the negative logarithm of the Ki (pKi) at hNET [3] and at hSERT [4] was not below 8.00 in each case.
With `Cc1cc(Cl)ccc1O[C@H](CC(C)C)[C@H]1CCNC1` [Example 10-45, (S)-3-[(R)-1-(4-Chloro-2-methylphenoxy)-3-methylbutyl]pyrrolidine], the IC50 at hSERT [1] and at hNET [2] was not above 10 nM throughout. Moreover, the negative logarithm of the Ki (pKi) on hNET [3] and at hSERT [4] was not below 8.00 throughout.
As to `Cc1cccc(O[C@H](C(C)C)[C@H]2CCNC2)c1C` [Example 6-43, (S)-3-[(R)-1-(2,3-Dimethylphenoxy)-2-methylpropyl]pyrrolidine], the IC50 on hSERT [1] and on hNET [2] was not above 10 nM throughout. For the same compound, the pKi at hNET [3] and on hSERT [4] was not below 8.00 each time.
`CC[C@H](Oc1ccc(F)c(OC)c1F)[C@H]1CCNC1` [Example 2-57, (S)-3-[(S)-1-(2,4-Difluoro-3-methoxyphenoxy)propyl]pyrrolidine]: the IC50 on hSERT [1] and on hNET [2] was not above 100 nM each time. In addition, the pKi at hNET [3] is not below 7.00; on hSERT [4], not below 8.00.
For `CCc1cc(F)cc(F)c1O[C@@H](C1CC1)[C@H]1CCNC1` [Example 16-81, (S)-3-[(S)cyclopropyl-(2-ethyl-4,6-difluorophenoxy)-methyl]pyrrolidine], the IC50 was not above 100 nM at hSERT [1] and not above 10 nM on hNET [2]. In addition, the negative logarithm of the Ki (pKi) at hNET [3] and at hSERT [4] was not below 8.00 in each case.
With `CC[C@H](Oc1c(C)cccc1Cl)[C@H]1CCNC1` [Example 2-27, (S)-3-[(S)-1-(2-Chloro-6-methylphenoxy)propyl]pyrrolidine], the IC50 at hSERT [1] was not above 100 nM; at hNET [2], not above 10 nM. Besides, the pKi at hNET [3] and on hSERT [4] was not below 8.00 in each case.
As to `Clc1cccc(O[C@@H](C2CC2)[C@H]2CCNC2)c1Cl` [Example 16-8, (S)-3-[(S)cyclopropyl-(2,3-dichlorophenoxy)methyl]pyrrolidine], the IC50 at hSERT [1] and at hNET [2] was not above 10 nM throughout. The negative logarithm of the Ki (pKi) on hNET [3] and at hSERT [4] was not below 8.00 throughout.
With `COc1cc(Cl)ccc1O[C@@H](C1CC1)[C@H]1CCNC1` [Example 16-37, (S)-3-[(S)-(4-Chloro-2-methoxyphenoxy)cyclopropylmethyl]pyrrolidine], the IC50 at hSERT [1] and on hNET [2] was not above 10 nM each time. Besides, the pKi on hNET [3] and at hSERT [4] was not below 8.00 in each case.
On to `CC(C)CC(Oc1cccc(C(F)(F)F)c1Cl)C1CCNC1` (stereo not shown) [Example 10-29, 3-[1-(2-Chloro-3-trifluoromethylphenoxy)-3-methylbutyl]pyrrolidine], for which the IC50 at hSERT [1] and at hNET [2] was not above 10 nM in each case. Besides, the negative logarithm of the Ki (pKi) at hNET [3] and on hSERT [4] was not below 8.00 throughout.
As for `CCC[C@@H](Oc1cccc(Cl)c1C)[C@@H]1CCNC1` [Example 4-57, (R)-3-[(R)-1-(3-Chloro-2-methylphenoxy)butyl]pyrrolidine], the IC50 on hSERT [1] and at hNET [2] was not above 10 nM throughout. Moreover, the pKi at hNET [3] and at hSERT [4] was not below 8.00 throughout.
On to `CC[C@H](Oc1c(F)ccc(Cl)c1F)[C@H]1CCNC1` [Example 2-52, (S)-3-[(S)-1-(3-Chloro-2,6-difluorophenoxy)propyl]pyrrolidine], for which the IC50 is not above 100 nM at hSERT [1] and not above 10 nM on hNET [2]. Further, the pKi at hNET [3] and on hSERT [4] was not below 8.00 throughout.
Turning to `CC[C@H](Oc1ccc(Cl)c(C)c1)[C@H]1CCNC1` [Example 2-13, (S)-3-[(S)-1-(4-Chloro-3-methylphenoxy)propyl]pyrrolidine], the IC50 at hSERT [1] and at hNET [2] was not above 10 nM each time. Moreover, the negative-log Ki (pKi) at hNET [3] and on hSERT [4] was not below 8.00 each time.
As to `CC(C)C[C@H](Oc1cc(Cl)cc(Cl)c1)[C@H]1CCNC1` [Example 10-77, (S)-3-[(S)-1-(3,5-Dichlorophenoxy)-3-methylbutyl]pyrrolidine], the IC50 on hSERT [1] and on hNET [2] was not above 10 nM in each case. Also, the negative logarithm of the Ki (pKi) at hNET [3] and on hSERT [4] was not below 8.00 in each case.
On to `CC(C)C[C@H](Oc1ccc(Cl)c(Cl)c1F)[C@H]1CCNC1` [Example 10-61, (S)-3-[(S)-1-(3,4-Dichloro-2-fluorophenoxy)-3-methylbutyl]pyrrolidine], for which the IC50 on hSERT [1] and at hNET [2] was not above 10 nM each time. Further, the negative logarithm of the Ki (pKi) on hNET [3] and on hSERT [4] was not below 8.00 in each case.
For the compound `Fc1cc(Cl)cc(O[C@@H](C2CC2)[C@H]2CCNC2)c1` [Example 16-98, (S)-3-[(S)-(3-Chloro-5-fluorophenoxy)cyclopropylmethyl]pyrrolidine], the IC50 at hSERT [1] was not above 100 nM; at hNET [2] it was not above 10 nM. Also, the negative logarithm of the Ki (pKi) on hNET [3] and at hSERT [4] was not below 8.00 throughout.
For `CCC[C@@H](Oc1cccc2ccccc12)[C@H]1CCNC1` [Example 14-2, (S)-3-[(R)-1-(Naphthalen-1-yloxy)butyl]pyrrolidine], the IC50 at hSERT [1] and on hNET [2] was not above 10 nM each time. Besides, the negative-log Ki (pKi) at hNET [3] and on hSERT [4] was not below 8.00 each time.
With `CC[C@H](Oc1c(C)cc(Cl)cc1Cl)[C@H]1CCNC1` [Example 2-43, (S)-3-[(S)-1-(2,4-Dichloro-6-methylphenoxy)propyl]pyrrolidine], the IC50 is not above 100 nM on hSERT [1] and not above 10 nM at hNET [2]. Moreover, the negative logarithm of the Ki (pKi) on hNET [3] and at hSERT [4] was not below 8.00 in each case.
Take `Cc1cc(Cl)ccc1O[C@@H](C(C)C)[C@H]1CCNC1` [Example 6-45, (S)-3-[(S)-1-(4-Chloro-2-methylphenoxy)-2-methylpropyl]pyrrolidine]: the IC50 on hSERT [1] and on hNET [2] was not above 10 nM each time. Further, the pKi on hNET [3] and at hSERT [4] was not below 8.00 each time.
Take `CC(C)[C@H](Oc1ccc(Cl)c(Cl)c1)[C@H]1CCNC1` [Example 6-62, (S)-3-[(S)-1-(3,4-Dichlorophenoxy)-2-methylpropyl]pyrrolidine]: the IC50 on hSERT [1] and at hNET [2] was not above 10 nM throughout. Besides, the pKi on hNET [3] and at hSERT [4] was not below 8.00 in each case.
As for `CCC[C@H](Oc1cc(Cl)cc(Cl)c1)[C@H]1CCNC1` [Example 4-6, (S)-3-[(S)-1-(3,5-Dichlorophenoxy)butyl]pyrrolidine], the IC50 at hSERT [1] and on hNET [2] was not above 10 nM throughout. Moreover, the pKi at hNET [3] and at hSERT [4] was not below 8.00 throughout.

For the origin of these results see patent US7994209B2, “3-phenoxymethylpyrrolidine compounds” (Theravance, Inc., priority 2009, dated 2011).
